Measured values taken from PubChem BioAssay AID1963870 (Molecular Pharmacology Branch, DTP, NCI, 2024).

System: 292921-168-R-J2-PDC KRAS tumor spheroid viability
Test: Anticancer human tumor 292921-168-R-J2-PDC patient-derived pancreatic carcinoma cell line growth inhibition [KRAS2]
Details: spheroids with HUVEC and MSC; for IC50: curve of first compound; for viability, T/C: stronger effect = lower value
How it was run: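 KRAS-mutant tumor cells were grown as spheroids with HUVEC endothelial cells and human MSCs as stroma. Targeted agents were tested alone and with KRAS pathway inhibitors. Doses started at or near clinical Cmax, or 10 microM, descending half-log.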

[1] = second compound 0.1 µM, first compound 0.0316 µM
[2] = second compound 0.1 µM, first compound 0.1 µM
[3] = second compound 0.1 µM, first compound 0.316 µM
[4] = second compound 0.1 µM, first compound 1 µM
[5] = second compound 0.1 µM, first compound 3.16 µM
[6] = second compound 0.1 µM, first compound 10 µM
[7] = second compound 0.316 µM, first compound 0.0316 µM
[8] = second compound 0.316 µM, first compound 0.1 µM
[9] = second compound 0.316 µM, first compound 0.316 µM
[10] = second compound 0.316 µM, first compound 1 µM
[11] = second compound 0.316 µM, first compound 3.16 µM
[12] = second compound 0.316 µM, first compound 10 µM
[13] = second compound 1 µM, first compound 0.0316 µM
[14] = second compound 1 µM, first compound 0.1 µM
[15] = second compound 1 µM, first compound 0.316 µM
[16] = second compound 1 µM, first compound 1 µM
[17] = second compound 1 µM, first compound 3.16 µM
[18] = second compound 1 µM, first compound 10 µM
[19] = second compound 3.16 µM, first compound 0.0316 µM
[20] = second compound 3.16 µM, first compound 0.1 µM
[21] = second compound 3.16 µM, first compound 0.316 µM
[22] = second compound 3.16 µM, first compound 1 µM
[23] = second compound 3.16 µM, first compound 3.16 µM
[24] = second compound 3.16 µM, first compound 10 µM
[25] = second compound 10 µM, first compound 0.0316 µM
[26] = second compound 10 µM, first compound 0.1 µM
[27] = second compound 10 µM, first compound 0.316 µM
[28] = second compound 10 µM, first compound 1 µM
[29] = second compound 10 µM, first compound 3.16 µM
[30] = second compound 10 µM, first compound 10 µM
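Further: drug exposure lasted seven days after spheroids formed for three days.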
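Wherever viability, T/C is given: percent of DMSO vehicle control viability which is 100%.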

SMILES	IC50 (second compound 0.1 µM) [µM]	IC50 (second compound 0.316 µM) [µM]	IC50 (second compound 1 µM) [µM]	IC50 (second compound 3.16 µM) [µM]	viability, T/C [1] [%]	viability, T/C [2] [%]	viability, T/C [3] [%]	viability, T/C [4] [%]	viability, T/C [5] [%]	viability, T/C [7] [%]	viability, T/C [8] [%]	viability, T/C [9] [%]	viability, T/C [10] [%]	viability, T/C [11] [%]	viability, T/C [13] [%]	viability, T/C [14] [%]	viability, T/C [15] [%]	viability, T/C [16] [%]	viability, T/C [17] [%]	viability, T/C [19] [%]	also measured
COC(=O)c1ccc2c(C(=Nc3ccc(N(C)C(=O)CN4CCN(C)CC4)cc3)c3ccccc3)c(O)[nH]c2c1 + CNCc1ccccc1-c1csc(C(C)Nc2nc(C)nc3cc(OC)c(OC)cc23)c1	0.538	0.516	0.407	< 0.0316	101	92.9	64.5	31.9	10.4	90.5	88.1	64.2	28.8	13.5	106	88.3	52.5	32.1	4.65	0.14	IC50 (second compound 10 µM): < 0.0316 µM; viability, T/C [6]: 0.5%; viability, T/C [12]: 0.68%; viability, T/C [18]: 0.52%; viability, T/C [20]: 0.23%; viability, T/C [21]: 0.19%; viability, T/C [22]: 0.33%; viability, T/C [23]: 0.3%; viability, T/C [24]: 0.68%; viability, T/C [25]: 0.2%; viability, T/C [26]: 0.22%; viability, T/C [27]: 0.19%; viability, T/C [28]: 0.16%; viability, T/C [29]: 0.13%; viability, T/C [30]: 0.35%
COc1cc2nccc(Oc3ccc(NC(=O)C4(C(=O)Nc5ccc(F)cc5)CC4)cc3)c2cc1OC + C=CC(=O)N1CCN(c2nc(OCC3CCCN3C)nc3c2CCN(c2cccc4cccc(C)c24)C3)CC1CC#N	1.71	1.31	< 0.0316	< 0.0316	89.8	83.9	84.4	62.5	35.1	82	83.2	82.4	55.5	29.2	45.6	39	38.2	22.9	14.7	0.34	IC50 (second compound 0.0316 µM): 2.06 µM; viability, T/C (second compound 0.0316 µM, first compound 0.0316 µM): 100%; viability, T/C (second compound 0.0316 µM, first compound 0.1 µM): 90.4%; viability, T/C (second compound 0.0316 µM, first compound 0.316 µM): 94.2%; viability, T/C (second compound 0.0316 µM, first compound 1 µM): 77.1%; viability, T/C (second compound 0.0316 µM, first compound 3.16 µM): 33.9%; viability, T/C (second compound 0.0316 µM, first compound 10 µM): 15.6%; viability, T/C [6]: 20.6%; viability, T/C [12]: 18.4%; viability, T/C [18]: 9.84%; viability, T/C [20]: 0.83%; viability, T/C [21]: 0.26%; viability, T/C [22]: 0.12%; viability, T/C [23]: 0.1%; viability, T/C [24]: 0.15%
CC1COCCN1c1cc(-c2ccnn2C)c2ccnc(-c3ccn[nH]3)c2n1 (stereo not given) + C=CC(=O)N1CCN(c2nc(=O)n(-c3c(C)ccnc3C(C)C)c3nc(-c4c(O)cccc4F)c(F)cc23)C(C)C1	< 0.01	< 0.01	< 0.01	< 0.01	19.9	15	13.6	16.1	18.3	20.1	13.5	14.6	17.5	20	16.8	12.9	15.5	18.7	23.2	12	IC50 (second compound 10 µM): < 0.01 µM; viability, T/C (second compound 0.1 µM, first compound 0.01 µM): 41.9%; viability, T/C (second compound 0.316 µM, first compound 0.01 µM): 32.8%; viability, T/C (second compound 1 µM, first compound 0.01 µM): 30.3%; viability, T/C (second compound 3.16 µM, first compound 0.01 µM): 17.1%; viability, T/C [20]: 12.4%; viability, T/C [21]: 16.8%; viability, T/C [22]: 21.8%; viability, T/C [23]: 24.1%; viability, T/C (second compound 10 µM, first compound 0.01 µM): 12.1%; viability, T/C [25]: 12.7%; viability, T/C [26]: 14.7%; viability, T/C [27]: 19.1%; viability, T/C [28]: 21.3%; viability, T/C [29]: 24.8%
COc1cc2nccc(Oc3ccc(NC(=O)C4(C(=O)Nc5ccc(F)cc5)CC4)cc3)c2cc1OC + CNCc1ccccc1-c1csc(C(C)Nc2nc(C)nc3cc(OC)c(OC)cc23)c1	1.27	1.05	0.401	< 0.0316	89.2	94.5	82.5	57.1	25.1	89.4	90.8	73.4	55.3	19.8	69.1	65.5	50.1	40.2	15.1	0.1	IC50 (second compound 10 µM): < 0.0316 µM; viability, T/C [6]: 18.1%; viability, T/C [12]: 17%; viability, T/C [18]: 3.12%; viability, T/C [20]: 0.09%; viability, T/C [21]: 0.13%; viability, T/C [22]: 0.06%; viability, T/C [23]: 0.05%; viability, T/C [24]: 0.1%; viability, T/C [25]: 0.08%; viability, T/C [26]: 0.13%; viability, T/C [27]: 0.21%; viability, T/C [28]: 0.08%; viability, T/C [29]: 0.42%; viability, T/C [30]: 0.25%
